Assay results: US8906925B2, “Pyrido[4,3-B]indoles containing rigid moieties” (Medivation Technologies, Inc., priority 2008, dated 2014)
Like-named read-outs stand apart in the source and are kept apart here.

Columns and labels:
[1] = molecular target: T1, human recombinant adrenergic α1D receptor (Homo sapiens, UniProt P25100); assay: Adrenergic α1D radioligand binding ([3H]Prozosin); details: read-out: Inhibition of ligand binding, Adrenergic α1D
T1 construct: expressed in transfected cells; host or cells: human embryonic kidney (HEK-293) cells
T1 sequence (P25100 1-572): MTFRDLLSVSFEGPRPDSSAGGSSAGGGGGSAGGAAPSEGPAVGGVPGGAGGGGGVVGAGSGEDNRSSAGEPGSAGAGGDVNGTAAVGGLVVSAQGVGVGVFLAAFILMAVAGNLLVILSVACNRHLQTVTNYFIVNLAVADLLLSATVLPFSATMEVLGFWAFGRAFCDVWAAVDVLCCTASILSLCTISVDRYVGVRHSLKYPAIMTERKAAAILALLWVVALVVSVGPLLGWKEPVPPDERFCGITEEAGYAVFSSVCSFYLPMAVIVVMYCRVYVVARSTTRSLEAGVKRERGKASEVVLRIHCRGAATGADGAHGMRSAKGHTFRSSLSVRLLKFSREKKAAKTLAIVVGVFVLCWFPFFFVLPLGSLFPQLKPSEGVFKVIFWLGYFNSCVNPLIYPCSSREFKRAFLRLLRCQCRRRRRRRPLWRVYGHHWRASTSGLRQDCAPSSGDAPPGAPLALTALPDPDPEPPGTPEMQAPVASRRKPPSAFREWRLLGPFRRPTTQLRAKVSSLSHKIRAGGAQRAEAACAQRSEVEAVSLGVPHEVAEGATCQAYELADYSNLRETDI
Procedure: Compounds of invention were incubated with 0.6 nM [^3H]Prozosin for 60 min. at 25° C. Non-specific binding was estimated in the presence of 10 μM phentolamine. Receptor proteins were filtered and washed, the filters were then counted to determine [^3H]Prozosin specifically bound. Compounds were screened at 1 μM or lower, using 1% DMSO as vehicle. Biochemical assay results are presented as the percent inhibition of specific binding in Table 9.

[2] = molecular target: human dopamine D2L receptor (Homo sapiens, UniProt P14416); assay: Dopamine D2L radioligand binding ([3H]Spiperone); details: for inhibition at 1 µM: read-out: Inhibition of ligand binding, Dopamine D2L; for Inhibition of ligand binding, Dopamine D2L: 1 µM
Source text: Non-specific binding was estimated in the presence of […] Haloperidol. Receptor proteins were filtered and washed, the filters were then counted to determine [^3H]Spiperone specifically bound. […] Biochemical assay results are presented as the percent inhibition of specific binding in Table 9.

[3] = molecular target: T2, human recombinant serotonin (5-Hydroxytryptamine) 5-HT2C receptor (Homo sapiens, UniProt P28335); assay: Serotonin 5-HT2C radioligand binding ([3H]Mesulergine); details: compound at 1 μM; read-out: Inhibition of ligand binding, Serotonin 5-HT2C (percent inhibition of specific binding)
T2 construct: expressed in transfected cells; host or cells: Chinese hamster ovary (CHO-K1) cells
T2 sequence (P28335 33-458): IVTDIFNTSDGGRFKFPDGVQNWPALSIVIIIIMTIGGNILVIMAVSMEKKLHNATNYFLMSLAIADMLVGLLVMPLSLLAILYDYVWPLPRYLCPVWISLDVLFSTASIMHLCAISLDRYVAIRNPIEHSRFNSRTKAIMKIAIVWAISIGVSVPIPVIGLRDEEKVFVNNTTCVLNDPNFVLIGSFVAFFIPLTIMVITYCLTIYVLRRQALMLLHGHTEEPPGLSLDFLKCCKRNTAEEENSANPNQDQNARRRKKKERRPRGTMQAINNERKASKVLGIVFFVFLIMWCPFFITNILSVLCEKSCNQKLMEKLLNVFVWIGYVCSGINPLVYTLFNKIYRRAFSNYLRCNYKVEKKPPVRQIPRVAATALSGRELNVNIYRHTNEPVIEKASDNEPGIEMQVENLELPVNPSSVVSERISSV
Procedure, shortened: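 Compounds tested at 1 μM or lower (1% DMSO vehicle) for displacement of 1 nM [3H]Mesulergine over 60 min at 25° C. Specific binding determined by filtration counting, with 1 μM Mianserin defining non-specific binding; values are percent inhibition.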

[4] = molecular target: T3, human recombinant serotonin (5-Hydroxytryptamine) 5-HT6 receptor (Homo sapiens, UniProt P50406); assay: Serotonin 5-HT6 radioligand binding ([3H]LSD); details: compound at 1 μM; read-out: Inhibition of ligand binding, Serotonin 5-HT6 (percent inhibition of specific binding)
T3 construct: expressed in transfected cells; host or cells: human HeLa cells
Procedure: Compounds of the invention were incubated with 1.5 nM [3H]Lysergic acid diethylamide (LSD) for 120 min. at 37° C. […] Receptor proteins were filtered and washed, the filters were then counted to determine [3H]LSD specifically bound. Compounds were screened at 1 μM or lower, using 1% DMSO as vehicle. Biochemical assay results are presented as the percent inhibition of specific binding in Table 10.

[5] = percent inhibition of specific binding, compound at 1 μM

T3 sequence (P50406 whole entry): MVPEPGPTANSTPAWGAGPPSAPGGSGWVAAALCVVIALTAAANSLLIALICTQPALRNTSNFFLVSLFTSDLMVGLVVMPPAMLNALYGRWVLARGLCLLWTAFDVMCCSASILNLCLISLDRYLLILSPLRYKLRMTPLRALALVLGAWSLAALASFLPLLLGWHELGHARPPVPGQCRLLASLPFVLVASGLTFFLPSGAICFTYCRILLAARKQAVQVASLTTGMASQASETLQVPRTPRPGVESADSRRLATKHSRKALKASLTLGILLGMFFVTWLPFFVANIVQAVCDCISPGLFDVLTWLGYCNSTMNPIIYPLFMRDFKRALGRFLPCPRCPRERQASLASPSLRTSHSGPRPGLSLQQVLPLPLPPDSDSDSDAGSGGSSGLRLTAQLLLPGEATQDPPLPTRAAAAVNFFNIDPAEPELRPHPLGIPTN
Chain of human dopamine D2L receptor (P14416 whole entry): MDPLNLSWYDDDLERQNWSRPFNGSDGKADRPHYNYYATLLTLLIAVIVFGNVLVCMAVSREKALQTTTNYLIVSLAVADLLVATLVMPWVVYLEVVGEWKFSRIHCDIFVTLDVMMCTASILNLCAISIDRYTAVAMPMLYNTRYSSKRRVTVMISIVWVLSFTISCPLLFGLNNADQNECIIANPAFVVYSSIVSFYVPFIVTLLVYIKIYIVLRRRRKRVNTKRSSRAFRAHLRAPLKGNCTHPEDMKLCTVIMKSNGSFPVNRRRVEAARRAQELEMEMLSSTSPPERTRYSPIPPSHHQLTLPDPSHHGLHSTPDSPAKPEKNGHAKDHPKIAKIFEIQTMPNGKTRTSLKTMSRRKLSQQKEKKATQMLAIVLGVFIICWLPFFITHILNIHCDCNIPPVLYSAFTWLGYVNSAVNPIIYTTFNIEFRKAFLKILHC

Row | Compound | inhibition at 1 µM [1] [%] | inhibition at 1 µM [2] [%] | inhibition at 1 µM [3] [%] | inhibition at 1 µM [4] [%] | inhibition at 1 µM [1, 5] [%] | inhibition at 1 µM [2, 5] [%] | Inhibition of ligand binding, Dopamine D2L [2, 5] [%]
1 | Cc1ccc2[nH]c3c(c2c1)CN(C)CC3 [Compound 3, 2,8-Dimethyl-2,3,4,5-tetrahydro-1H-pyrido[4,3-b]indole] | 42 | 14 | 96 | 58 | – | – | –
2 | Cc1ccc(C(C)(O)Cn2c3c(c4cc(Cl)ccc42)CN(C)CC3)cn1 (stereo not drawn) [Compound 47, 1-(8-chloro-1,2,3,4-tetrahydro-2-methylpyrido[4,3-b]indol-5-yl)-2-(6-methylpyridin-3-yl)propan-2-ol] | – | – | 81 | 39 | 82 | 7 | –
3 | Cc1ccc2c(c1)c1c(n2CC(O)c2ccc(C)nc2)CCN(C)C1 (stereo not drawn) [Compound 48, 2-(2,8-dimethyl-3,4-dihydro-1H-pyrido[4,3-b]indol-5(2H)-yl)-1-(6-methylpyridin-3-yl)ethanol] | – | – | 67 | 59 | 45 | 8 | –
4 | Cc1ccc2c(c1)c1c(n2CC(C)(O)c2ccc(C)nc2)CCN(C)C1 (stereo not drawn) [Compound 52, 1-(1,2,3,4-tetrahydro-2,8-dimethylpyrido[4,3-b]indol-5-yl)-2-(6-methylpyridin-3-yl)propan-2-ol] | – | – | 87 | 37 | 39 | 12 | –
5 | Cc1ccc2c(c1)c1c(n2CC(O)c2cccnc2)CCN(C)C1 (stereo not drawn) [Compound 54, 2-(1,2,3,4-tetrahydro-2,8-dimethylpyrido[4,3-b]indol-5-yl)-1-(pyridin-3-yl)ethanol] | – | – | 22 | 31 | 15 | -4 | –
6 | Cc1ccc2c(c1)c1c(n2CC(C)(O)c2ccc(F)cc2)CCN(C)C1 (stereo not drawn) [Compound 55, 2-(4-fluorophenyl)-1-(1,2,3,4-tetrahydro-2,8-dimethylpyrido[4,3-b]indol-5-yl)propan-2-ol] | – | – | 93 | – | 64 | 34 | –
7 | CN1CCc2c(c3cc(Cl)ccc3n2CC(O)c2cccnc2)C1 (stereo not drawn) [Compound 56, 2-(8-chloro-1,2,3,4-tetrahydro-2-methylpyrido[4,3-b]indol-5-yl)-1-(pyridin-3-yl)ethanol] | – | – | 38 | 62 | 43 | 4 | –
8 | COc1ccc(C(C)(O)Cn2c3c(c4cc(Cl)ccc42)CN(C)CC3)cc1 (stereo not drawn) [Compound 57, 1-(8-chloro-1,2,3,4-tetrahydro-2-methylpyrido[4,3-b]indol-5-yl)-2-(4-methoxyphenyl)propan-2-ol] | – | – | 86 | 68 | 84 | 22 | –
9 | COc1ccc(C(C)(O)Cn2c3c(c4cc(Cl)ccc42)CN(C)CC3)cc1F (stereo not drawn) [Compound 59, 1-(8-chloro-1,2,3,4-tetrahydro-2-methylpyrido[4,3-b]indol-5-yl)-2-(3-fluoro-4-methoxyphenyl)propan-2-ol] | – | – | 99 | 54 | 81 | 17 | –
10 | Cc1ccc2c(c1)c1c(n2CC(C)(O)c2cccnc2)CCN(C)C1 (stereo not drawn) [Compound 60, 1-(1,2,3,4-tetrahydro-2,8-dimethylpyrido[4,3-b]indol-5-yl)-2-(pyridin-3-yl)propan-2-ol] | – | – | 86 | 50 | 33 | 6 | –
11 | CN1CCc2c(c3cc(Cl)ccc3n2CC(C)(O)c2cccnc2)C1 (stereo not drawn) [Compound 61, 1-(8-chloro-1,2,3,4-tetrahydro-2-methylpyrido[4,3-b]indol-5-yl)-2-(pyridin-3-yl)propan-2-ol] | – | – | 90 | 65 | 87 | 19 | –
12 | Cc1ccc2c(c1)c1c(n2CC(C)(O)c2ccncc2)CCN(C)C1 (stereo not drawn) [Compound 62, 1-(1,2,3,4-tetrahydro-2,8-dimethylpyrido[4,3-b]indol-5-yl)-2-(pyridin-4-yl)propan-2-ol] | – | – | 89 | 43 | 82 | 7 | –
13 | CN1CCc2c(c3cc(Cl)ccc3n2CC(C)(O)c2ccncc2)C1 (stereo not drawn) [Compound 63, 1-(8-chloro-1,2,3,4-tetrahydro-2-methylpyrido[4,3-b]indol-5-yl)-2-(pyridin-4-yl)propan-2-ol] | – | – | 95 | 73 | 84 | 17 | –
14 | C/C(=C\n1c2c(c3cc(Cl)ccc31)CN(C)CC2)c1ccc(C)nc1 [Compound 89, (E)-8-chloro-2,3,4,5-tetrahydro-2-methyl-5-(2-(6-methylpyridin-3-yl)prop-1-enyl)-1H-pyrido[4,3-b]indole] | – | – | 98 | 67 | 87 | 68 | –
15 | COc1ccc(/C(C)=C/n2c3c(c4cc(Cl)ccc42)CN(C)CC3)cc1 [Compound 92, (E)-8-chloro-2,3,4,5-tetrahydro-5-(2-(4-methoxyphenyl)prop-1-enyl)-2-methyl-1H-pyrido[4,3-b]indole] | – | – | 91 | 97 | 99 | 83 | 97
16 | COc1ccc(/C(C)=C/n2c3c(c4cc(Cl)ccc42)CN(C)CC3)cc1F [Compound 93, (E)-8-chloro-5-(2-(3-fluoro-4-methoxyphenyl)prop-1-enyl)-2,3,4,5-tetrahydro-2-methyl-1H-pyrido[4,3-b]indole] | – | – | 99 | 93 | 96 | 85 | 97
17 | Cc1ccc(/C=C/Cn2c3c(c4cc(Cl)ccc42)CN(C)CC3)cn1 [Compound 125, 8-chloro-2,3,4,5-tetrahydro-2-methyl-5-((E)-3-(6-methylpyridin-3-yl)allyl)-1H-pyrido[4,3-b]indole] | – | – | 77 | 62 | 51 | 20 | –
18 | CN1CCc2c(c3cc(Cl)ccc3n2C/C=C/c2ccc(F)cc2)C1 [Compound 126, 5-(4-fluorocinnamyl)-8-chloro-2,3,4,5-tetrahydro-2-methyl-1H-pyrido[4,3-b]indole] | – | – | 84 | 95 | 50 | 84 | –
19 | CN1CCc2c(c3cc(Cl)ccc3n2C/C=C/c2ccncc2)C1 [Compound 127, 8-chloro-2,3,4,5-tetrahydro-2-methyl-5-((E)-3-(pyridin-4-yl)allyl)-1H-pyrido[4,3-b]indole] | – | – | 72 | 41 | 46 | 10 | –
20 | C=C(Cn1c2c(c3cc(Cl)ccc31)CN(C)CC2)c1cccnc1 [Compound 133, 8-chloro-2,3,4,5-tetrahydro-2-methyl-5-(2-(pyridin-3-yl)allyl)-1H-pyrido[4,3-b]indole] | – | – | 96 | 80 | 55 | 29 | –
